Measured values: PMC5356007, “A conserved inter-domain communication mechanism regulates the ATPase activity of the AAA-protein Drg1” (Scientific Reports, 2017)
Where a chain is given by its changes, count along the chain named. Read-outs that look alike come from different tables or passages of the source.

Legend:
[1] = molecular target: T1, Drg1 (Saccharomyces cerevisiae, UniProt P32794, K563A); test: differential scanning fluorimetry; assay type: binding
T1 construct: gene AFG2; full-length type II AAA-ATPase, N-terminal GST-tag with PreScission site (plasmids derived from pAZ7), expressed in yeast from CUP1 promoter; Walker A mutants KA1 (K292A) and KA2 (K563A); hexamer in presence of nucleotide
T1 sequence (P32794 1-780 K563A): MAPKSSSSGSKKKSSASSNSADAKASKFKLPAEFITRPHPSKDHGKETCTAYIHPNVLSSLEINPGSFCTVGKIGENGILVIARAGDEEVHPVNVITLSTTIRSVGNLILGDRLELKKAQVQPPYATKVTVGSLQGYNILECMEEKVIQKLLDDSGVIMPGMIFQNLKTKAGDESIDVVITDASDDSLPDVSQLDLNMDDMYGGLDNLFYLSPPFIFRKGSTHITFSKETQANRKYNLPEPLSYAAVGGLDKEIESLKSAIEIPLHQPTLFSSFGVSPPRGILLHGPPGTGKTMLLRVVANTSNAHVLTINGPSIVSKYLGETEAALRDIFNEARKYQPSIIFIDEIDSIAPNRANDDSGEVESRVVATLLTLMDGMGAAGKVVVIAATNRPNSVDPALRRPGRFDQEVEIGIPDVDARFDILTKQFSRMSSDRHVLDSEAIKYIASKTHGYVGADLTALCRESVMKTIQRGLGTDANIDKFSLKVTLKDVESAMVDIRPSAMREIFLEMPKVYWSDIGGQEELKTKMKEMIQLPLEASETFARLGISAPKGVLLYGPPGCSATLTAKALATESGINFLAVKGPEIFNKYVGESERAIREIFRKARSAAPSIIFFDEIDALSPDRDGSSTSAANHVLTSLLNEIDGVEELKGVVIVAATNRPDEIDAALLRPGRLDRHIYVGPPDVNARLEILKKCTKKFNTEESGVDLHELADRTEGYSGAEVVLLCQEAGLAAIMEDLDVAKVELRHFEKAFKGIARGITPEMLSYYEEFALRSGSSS

[2] = molecular target: T2, Drg1 (Saccharomyces cerevisiae, UniProt P32794, K292A); test: differential scanning fluorimetry; assay type: binding; settings: read-out: Kd(ATP)
T2 construct: gene AFG2; full-length type II AAA-ATPase, N-terminal GST-tag with PreScission site (plasmids derived from pAZ7), expressed in yeast from CUP1 promoter; Walker A mutants KA1 (K292A) and KA2 (K563A); hexamer in presence of nucleotide
T2 sequence (P32794 1-780 K292A): T1 sequence (P32794 1-780 K563A) with K292A, A563K

`Nc1ncnc2c1ncn2[C@@H]1O[C@H](COP(=O)(O)OP(=O)(O)OP(=O)(O)O)[C@@H](O)[C@H]1O` [ATP] was tested, and the Kd ([1]; read-out: Kd(ATP)) was ~20 µM and the Kd [2] was ~80 µM.
In the case of `Nc1ncnc2c1ncn2[C@@H]1O[C@H](COP(=O)(O)OP(=O)(O)O)[C@@H](O)[C@H]1O` [ADP], the Kd ([1]; read-out: Kd(ADP)) is reported as ~120 µM.
